Each molecule was assayed on hypoxia-inducible endogenous VEGF expression in HeLa cells (assay: Hypoxia-inducible endogenous VEGF expression, VEGF ELISA of conditioned media (dose-response EC50)). Conditions: Homo sapiens, HeLa cells under hypoxic conditions.
Assay type: cell-based
Protocol: The ability of the compounds of the invention to modulate hypoxia-inducible endogenous VEGF expression may be analyzed as follows. VEGF protein levels may be monitored by an ELISA assay (R&D Systems). Briefly, HeLa cells may be cultured for 24-48 hours under hypoxic conditions (1% O2, 5% CO2, balanced with nitrogen) in the presence or absence of a compound of the invention. The conditioned media may then be assayed by ELISA, and the concentration of VEGF calculated from the standard ELISA curve of each assay.
A dose-response analysis may be performed using the ELISA assay and conditions described above. The conditions for the dose-response ELISA are analogous to those described above. A series of, e.g., seven different concentrations may be analyzed. […] Dose-response curves may be plotted using percentage inhibition versus concentration of the compound, and EC50 and CC50 values may be generated for each compound with the maximal inhibition set as 100% and the minimal inhibition as 0%.

First: Clc1ccc(C2NCCc3c2[nH]c2ccc(Br)cc32)c(Cl)c1 (stereo not drawn) [Compound 135]
Second: COc1cccc(C2NCCc3c2[nH]c2ccc(Br)cc32)c1O (stereo not drawn) [Compound 377]
The EC50 of the first is lower: 40 to 200 nM for the first, greater than 1000 nM for the second.

First: N#Cc1ccc(C2c3[nH]c4ccc(Cl)cc4c3CCN2C(=O)OCCCl)cc1 (stereo not drawn) [Compound 12]
Second: COc1cccc(C2c3[nH]c4ccc(Cl)cc4c3CCN2C(=O)OCCCl)c1 (stereo not drawn) [Compound 117]
The EC50 of the first is lower: less than 8 nM for the first, 8 to 40 nM for the second. The first is the more potent here.

First: Clc1ccc2[nH]c3c(c2c1)CCN(Cc1ccoc1)C3c1nccs1 (stereo not drawn) [Compound 270]
Second: CCOC(=O)N1CCc2c([nH]c3ccc(Cl)cc23)C1c1ccc(O)cc1 (stereo not drawn) [Compound 128]
The EC50 of the first is higher: greater than 1000 nM for the first, 40 to 200 nM for the second. The second is the more potent here.

Compared with CCOC(=O)N1CCc2c([nH]c3ccc(Cl)cc23)C1c1ccccc1OC (stereo not drawn) [Compound 169], CCCOC(=O)N1CCc2c([nH]c3ccc(Cl)cc23)C1c1cccc(OC)c1 (stereo not drawn) [Compound 86] is lower in EC50: 40 to 200 nM for the first, 8 to 40 nM for the second. The second is the more potent here.

COc1cccc(C2c3[nH]c4ccc(Cl)cc4c3CCN2C(=O)OC(C)C)c1 (stereo not drawn) [Compound 88] and COC(=O)N1CCc2c([nH]c3ccc(Cl)cc23)C1c1ccc(C)cc1 (stereo not drawn) [Compound 52] fall in the same range of EC50: 8 to 40 nM for the first, 8 to 40 nM for the second.

Brc1ccc2[nH]c3c(c2c1)CCNC3Cc1ccccc1 (stereo not drawn) [Compound 252] and c1ccc(COc2ccc3[nH]c4c(c3c2)CCNC4c2cccnc2)cc1 (stereo not drawn) [Compound 320] cannot be ordered by EC50: greater than 1000 nM for the first, greater than 1000 nM for the second.

First: COc1cccc(C2NC(CO)Cc3c2[nH]c2ccccc32)c1 (stereo not drawn) [Compound 318]
Second: COc1cccc(C2NCCc3c2[nH]c2ccc(Cl)cc32)c1 (stereo not drawn) [Compound 210]
The EC50 of the first is higher: greater than 1000 nM for the first, 200 to 1000 nM for the second.

COc1ccc(C2c3[nH]c4ccc(F)cc4c3CCN2C(=S)NC2CCCCC2)cc1 (stereo not drawn) [Compound 242] and COc1ccc(C2NCCc3c2[nH]c2ccc(Cl)cc32)cc1 (stereo not drawn) [Compound 231] cannot be ordered by EC50: greater than 1000 nM for the first, greater than 1000 nM for the second.

First: CCOC(=O)N1Cc2c([nH]c3ccc(Br)cc23)C(O)C1 (stereo not drawn) [Compound 249]
Second: O=C(OCCCl)N1CCc2c([nH]c3ccc(Cl)cc23)C1c1cccc(C(F)(F)F)c1 (stereo not drawn) [Compound 15]
The EC50 of the first is higher: greater than 1000 nM for the first, less than 8 nM for the second.

First: Cc1ccc2[nH]c3c(c2c1)CCN(c1ncccn1)C3c1ccc(C(C)C)cc1 (stereo not drawn) [Compound 345]
Second: c1ccc(COc2ccc(C3NCCc4c3[nH]c3ccc(OCc5ccccc5)cc43)cc2)cc1 (stereo not drawn) [Compound 288]
The EC50 of the first is lower: 8 to 40 nM for the first, greater than 1000 nM for the second. The first is the more potent here.

Same assay, conditions: Homo sapiens, HeLa cells, hypoxic conditions (1% O2)

COCCOc1ccc(C2c3[nH]c4ccc(Cl)cc4c3CCN2C(=O)Oc2ccc(Cl)cc2)cc1 (stereo not drawn) [Compound 418] and COCCOc1ccc(C2c3[nH]c4ccc(Cl)cc4c3CCN2C(=O)Oc2ccccc2)cc1 (stereo not drawn) [Compound 436] cannot be ordered by EC50: less than 8 nM for the first, less than 8 nM for the second.

CCOC(=O)Nc1ccc(C2c3[nH]c4ccc(Cl)cc4c3CCN2C(=O)Oc2ccc(Cl)cc2)cc1 (stereo not drawn) [Compound 467] and COCCOC(=O)Nc1ccc(C2c3[nH]c4ccc(Cl)cc4c3CCN2C(=O)Oc2ccc(Cl)cc2)cc1 (stereo not drawn) [Compound 470] fall in the same range of EC50: 8 to 40 nM for the first, 8 to 40 nM for the second.

CCOC(=O)N1CCc2c([nH]c3ccc(Br)cc23)C1c1ccc(CO)cc1 (stereo not drawn) [Compound 430] and CCOC(=O)N1CCc2c([nH]c3ccc(Br)cc23)C1c1cnc(N(C)C)nc1 (stereo not drawn) [Compound 435] cannot be ordered by EC50: less than 8 nM for the first, less than 8 nM for the second.

Compared with O=C1OCC(COc2ccc(C3c4[nH]c5ccc(Cl)cc5c4CCN3C(=O)Oc3ccc(Cl)cc3)cc2)O1 (stereo not drawn) [Compound 421], CCOC(=O)N1CCc2c([nH]c3ccc(Cl)cc23)C1c1coc2ccccc2c1=O (stereo not drawn) [Compound 499] is higher in EC50: less than 8 nM for the first, 40 to 200 nM for the second.

First: Clc1ccc2[nH]c3c(c2c1)CCNC3CCc1ccccc1 (stereo not drawn) [Compound 416]
Second: CCOC(=O)N1CCc2c([nH]c3ccc(Cl)cc23)C1c1ccc(C(=O)N2CCN(CCOC)CC2)cc1 (stereo not drawn) [Compound 469]
The EC50 of the first is lower: less than 8 nM for the first, 8 to 40 nM for the second. The first is the more potent here.

Same assay, conditions: Homo sapiens, HeLa cells, hypoxic conditions (1% O2, 5% CO2)

First: O=C(Oc1ccc(Cl)cc1)N1CCc2c([nH]c3ccc(Cl)cc23)C1c1ccc(OCC(O)Cn2ccnn2)cc1 (stereo not drawn) [Compound 973]
Second: CC(=O)N1CCN(CCCOc2ccc(C3c4[nH]c5ccc(Cl)cc5c4CCN3C(=O)Oc3ccc(Cl)cc3)cc2)CC1 (stereo not drawn) [Compound 903]
The EC50 of the first is higher: 8 to 40 nM for the first, less than 8 nM for the second. The second is the more potent here.

In the case of CN1CCN(CCCOc2ccc(C3c4[nH]c5ccc(Cl)cc5c4CCN3C(=O)Oc3ccc(F)cc3)cc2)CC1 (stereo not drawn) [Compound 993], the EC50 is reported as less than 8 nM.

Reference: US8076352B2, “Administration of carboline derivatives useful in the treatment of cancer and other diseases” (PTC Therapeutics, Inc., priority 2004, dated 2011)
